Tested on: cytokines and interferon-inducible genes
Experiment: mRNA expression of cytokines and interferon-inducible genes in whole blood of healthy woodchucks (real time PCR)
Assay type: in vivo
Method: Compound A was administered orally to adult, WHV-negative woodchucks at two different doses. Three male woodchucks received Compound A at 0.05 mg/kg and three other male woodchucks at 0.5 mg/kg. Whole blood samples (4 mls) were collected from each woodchuck prior to dosing at T0, and then at 4, 8, 12, and 24 hours post-dose using EDTA-containing collection tubes.
The induction of an immune response in woodchucks following administration of Compound A was determined by measuring the mRNA expression of cytokines and interferon-inducible genes in whole blood samples collected at different time points. Total RNA was isolated using the QIAamp RNA Blood Mini Kit (Qiagen) according to the manufacturer's specifications. RNA was eluted into 40 μl nuclease-free water and stored at −70° C. The concentration of RNA was determined spectrophotometrically at OD 260 nm. Two μg of RNA were treated with DNase I (Invitrogen) and reverse transcribed to cDNA with MultiScribe Reverse Transcriptase (Applied Biosystems) using random hexamers. Triplicates of 2 μl cDNA were amplified by real time PCR on an ABI PRISM 7000 Sequence Detection instrument (Applied Biosystems) using SYBR GREEN Master Mix (Applied Biosystems) and woodchuck-specific primers. Amplified target genes included IFN-α, IFN-γ, TNF-α, IL-2, IL-6, IL-10 IL-12, 2′5′-OAS, IDO, and MxA. Woodchuck β-actin mRNA expression was used to normalize target gene expression. Transcription levels of woodchuck cytokines and interferon-inducible genes were represented by the formula 2ΔCt, where ΔCt indicates the difference in the threshold cycle between β-actin and target gene expression. Results were further represented as a fold-change from the transcription level at T0.

## CCCCOc1nc(N)c2nc(O)n(Cc3cccc(CN4CCCC4)c3)c2n1 [Compound A, 6-amino-2-butoxy-9-(3-(pyrrolidin-1-ylmethyl)benzyl)-9H-purin-8-ol]
Oral 0.05 mg/kg, 4 hrs
  2′5′-OAS mRNA expression in peripheral blood, Mean: 13.89
  2′5′-OAS mRNA expression, Fold-change from T0: 3.8 fold
  IDO mRNA expression in peripheral blood, Mean: 1.30
  IDO mRNA expression, Fold-change from T0: 1.1 fold
  IFN-a mRNA expression in peripheral blood, Mean: 7.21
  IFN-a mRNA expression, Fold-change from T0: 3.1 fold
  IFN-γ mRNA expression in peripheral blood, Mean: 2.03
  IFN-γ mRNA expression, Fold-change from T0: 1.6 fold
  IL-2 mRNA expression in peripheral blood, Mean: 2.11
  IL-2 mRNA expression, Fold-change from T0: 1.9 fold
  IL-6 mRNA expression in peripheral blood, Mean: 9.75
  IL-6 mRNA expression, Fold-change from T0: 2.3 fold
  IL-10 mRNA expression in peripheral blood, Mean: 4.14
  IL-10 mRNA expression, Fold-change from T0: 1.7 fold
  IL-12 mRNA expression in peripheral blood, Mean: 7.27
  IL-12 mRNA expression, Fold-change from T0: 4.5 fold
  MxA mRNA expression in peripheral blood, Mean: 2.26
  MxA mRNA expression, Fold-change from T0: 1.4 fold
  TNF-a mRNA expression in peripheral blood, Mean: 23.83
  TNF-a mRNA expression, Fold-change from T0: 3.5 fold
Oral 0.05 mg/kg, 8 hrs
  2′5′-OAS mRNA expression in peripheral blood, Mean: 16.96
  2′5′-OAS mRNA expression, Fold-change from T0: 4.8 fold
  IDO mRNA expression in peripheral blood, Mean: 2.05
  IDO mRNA expression, Fold-change from T0: 2.2 fold
  IFN-a mRNA expression in peripheral blood, Mean: 12.99
  IFN-a mRNA expression, Fold-change from T0: 4.2 fold
  IFN-γ mRNA expression in peripheral blood, Mean: 4.34
  IFN-γ mRNA expression, Fold-change from T0: 3.4 fold
  IL-2 mRNA expression in peripheral blood, Mean: 1.74
  IL-2 mRNA expression, Fold-change from T0: 1.5 fold
  IL-6 mRNA expression in peripheral blood, Mean: 10.57
  IL-6 mRNA expression, Fold-change from T0: 2.6 fold
  IL-10 mRNA expression in peripheral blood, Mean: 8.48
  IL-10 mRNA expression, Fold-change from T0: 3.4 fold
  IL-12 mRNA expression in peripheral blood, Mean: 7.35
  IL-12 mRNA expression, Fold-change from T0: 4.7 fold
  MxA mRNA expression in peripheral blood, Mean: 5.93
  MxA mRNA expression, Fold-change from T0: 3.8 fold
  TNF-a mRNA expression in peripheral blood, Mean: 20.72
  TNF-a mRNA expression, Fold-change from T0: 3.0 fold
Oral 0.05 mg/kg, 12 hrs
  2′5′-OAS mRNA expression in peripheral blood, Mean: 54.92
  2′5′-OAS mRNA expression, Fold-change from T0: 15.6 fold
  IDO mRNA expression in peripheral blood, Mean: 10.64
  IDO mRNA expression, Fold-change from T0: 7.7 fold
  IFN-a mRNA expression in peripheral blood, Mean: 3.82
  IFN-a mRNA expression, Fold-change from T0: 1.3 fold
  IFN-γ mRNA expression in peripheral blood, Mean: 2.64
  IFN-γ mRNA expression, Fold-change from T0: 2.0 fold
  IL-2 mRNA expression in peripheral blood, Mean: 2.43
  IL-2 mRNA expression, Fold-change from T0: 2.1 fold
  IL-6 mRNA expression in peripheral blood, Mean: 6.22
  IL-6 mRNA expression, Fold-change from T0: 1.5 fold
  IL-10 mRNA expression in peripheral blood, Mean: 7.35
  IL-10 mRNA expression, Fold-change from T0: 3.0 fold
  IL-12 mRNA expression in peripheral blood, Mean: 21.12
  IL-12 mRNA expression, Fold-change from T0: 12.7 fold
  MxA mRNA expression in peripheral blood, Mean: 18.70
  MxA mRNA expression, Fold-change from T0: 12.5 fold
  TNF-a mRNA expression in peripheral blood, Mean: 35.05
  TNF-a mRNA expression, Fold-change from T0: 5.2 fold
Oral 0.05 mg/kg, 24 hrs
  2′5′-OAS mRNA expression in peripheral blood, Mean: 36.91
  2′5′-OAS mRNA expression, Fold-change from T0: 11.9 fold
  IDO mRNA expression in peripheral blood, Mean: 26.71
  IDO mRNA expression, Fold-change from T0: 25.6 fold
  IFN-a mRNA expression in peripheral blood, Mean: 2.63
  IFN-a mRNA expression, Fold-change from T0: 1.0 fold
  IFN-γ mRNA expression in peripheral blood, Mean: 1.82
  IFN-γ mRNA expression, Fold-change from T0: 1.2 fold
  IL-2 mRNA expression in peripheral blood, Mean: 3.64
  IL-2 mRNA expression, Fold-change from T0: 3.2 fold
  IL-6 mRNA expression in peripheral blood, Mean: 4.30
  IL-6 mRNA expression, Fold-change from T0: 1.1 fold
  IL-10 mRNA expression in peripheral blood, Mean: 6.08
  IL-10 mRNA expression, Fold-change from T0: 2.3 fold
  MxA mRNA expression in peripheral blood, Mean: 117.33
  MxA mRNA expression, Fold-change from T0: 69.3 fold
  TNF-a mRNA expression in peripheral blood, Mean: 20.53
  TNF-a mRNA expression, Fold-change from T0: 3.2 fold
Oral 0.5 mg/kg, 4 hrs
  2′5′-OAS mRNA expression in peripheral blood, Mean: 33.05
  2′5′-OAS mRNA expression, Fold-change from T0: 6.5 fold
  IDO mRNA expression in peripheral blood, Mean: 22.67
  IDO mRNA expression, Fold-change from T0: 9.1 fold
  IFN-a mRNA expression in peripheral blood, Mean: 19.14
  IFN-a mRNA expression, Fold-change from T0: 3.9 fold
  IFN-γ mRNA expression in peripheral blood, Mean: 2.80
  IFN-γ mRNA expression, Fold-change from T0: 2.6 fold
  IL-2 mRNA expression in peripheral blood, Mean: 4.32
  IL-2 mRNA expression, Fold-change from T0: 2.2 fold
  IL-6 mRNA expression in peripheral blood, Mean: 21.84
  IL-6 mRNA expression, Fold-change from T0: 4.6 fold
  IL-10 mRNA expression in peripheral blood, Mean: 4.01
  IL-10 mRNA expression, Fold-change from T0: 1.5 fold
  IL-12 mRNA expression in peripheral blood, Mean: 5.74
  IL-12 mRNA expression, Fold-change from T0: 3.8 fold
  MxA mRNA expression in peripheral blood, Mean: 5.96
  MxA mRNA expression, Fold-change from T0: 3.6 fold
  TNF-a mRNA expression in peripheral blood, Mean: 43.18
  TNF-a mRNA expression, Fold-change from T0: 6.2 fold
Oral 0.5 mg/kg, 8 hrs
  2′5′-OAS mRNA expression in peripheral blood, Mean: 41.13
  2′5′-OAS mRNA expression, Fold-change from T0: 8.3 fold
  IDO mRNA expression in peripheral blood, Mean: 30.62
  IDO mRNA expression, Fold-change from T0: 11.6 fold
  IFN-a mRNA expression in peripheral blood, Mean: 48.85
  IFN-a mRNA expression, Fold-change from T0: 10.4 fold
  IFN-γ mRNA expression in peripheral blood, Mean: 7.81
  IFN-γ mRNA expression, Fold-change from T0: 6.7 fold
  IL-2 mRNA expression in peripheral blood, Mean: 3.12
  IL-2 mRNA expression, Fold-change from T0: 2.0 fold
  IL-6 mRNA expression in peripheral blood, Mean: 18.57
  IL-6 mRNA expression, Fold-change from T0: 4.6 fold
  IL-10 mRNA expression in peripheral blood, Mean: 17.31
  IL-10 mRNA expression, Fold-change from T0: 6.6 fold
  IL-12 mRNA expression in peripheral blood, Mean: 6.86
  IL-12 mRNA expression, Fold-change from T0: 4.2 fold
  MxA mRNA expression in peripheral blood, Mean: 12.86
  MxA mRNA expression, Fold-change from T0: 7.9 fold
  TNF-a mRNA expression in peripheral blood, Mean: 31.19
  TNF-a mRNA expression, Fold-change from T0: 4.5 fold
Oral 0.5 mg/kg, 12 hrs
  2′5′-OAS mRNA expression in peripheral blood, Mean: 884.87
  2′5′-OAS mRNA expression, Fold-change from T0: 185.6 fold
  IDO mRNA expression in peripheral blood, Mean: 89.01
  IDO mRNA expression, Fold-change from T0: 37.0 fold
  IFN-a mRNA expression in peripheral blood, Mean: 7.12
  IFN-a mRNA expression, Fold-change from T0: 1.5 fold
  IFN-γ mRNA expression in peripheral blood, Mean: 4.36
  IFN-γ mRNA expression, Fold-change from T0: 3.8 fold
  IL-6 mRNA expression in peripheral blood, Mean: 6.25
  IL-6 mRNA expression, Fold-change from T0: 1.4 fold
  IL-10 mRNA expression in peripheral blood, Mean: 14.92
  IL-10 mRNA expression, Fold-change from T0: 5.6 fold
  IL-12 mRNA expression in peripheral blood, Mean: 49.93
  IL-12 mRNA expression, Fold-change from T0: 30.1 fold
  MxA mRNA expression in peripheral blood, Mean: 71.77
  MxA mRNA expression, Fold-change from T0: 45.3 fold
  TNF-a mRNA expression in peripheral blood, Mean: 62.30
  TNF-a mRNA expression, Fold-change from T0: 9.0 fold
Oral 0.5 mg/kg, 24 hrs
  2′5′-OAS mRNA expression in peripheral blood, Mean: 64.27
  2′5′-OAS mRNA expression, Fold-change from T0: 14.4 fold
  IDO mRNA expression in peripheral blood, Mean: 1217.20
  IDO mRNA expression, Fold-change from T0: 454.2 fold
  IFN-a mRNA expression in peripheral blood, Mean: 4.15
  IFN-a mRNA expression, Fold-change from T0: 0.9 fold
  IFN-γ mRNA expression in peripheral blood, Mean: 2.16
  IFN-γ mRNA expression, Fold-change from T0: 1.9 fold
  IL-2 mRNA expression in peripheral blood, Mean: 13.38
  IL-2 mRNA expression, Fold-change from T0: 5.9 fold
  IL-6 mRNA expression in peripheral blood, Mean: 4.75
  IL-6 mRNA expression, Fold-change from T0: 1.2 fold
  IL-10 mRNA expression in peripheral blood, Mean: 8.74
  IL-10 mRNA expression, Fold-change from T0: 3.3 fold
  IL-12 mRNA expression in peripheral blood, Mean: 11.55
  IL-12 mRNA expression, Fold-change from T0: 7.0 fold
  MxA mRNA expression in peripheral blood, Mean: 758.52
  MxA mRNA expression, Fold-change from T0: 518.8 fold
  TNF-a mRNA expression in peripheral blood, Mean: 30.71
  TNF-a mRNA expression, Fold-change from T0: 4.5 fold
Oral 0.05 and 0.5 mg/kg
  mRNA expression of IFN-α, IFN-γ, TNF-alpha, IL-2, IL-6, IL-10, IL-12, 2′5′-OAS, IDO and MxA: induced dose-dependent increases in the mRNA expression
Oral dosing
  time of maximal mRNA expression of IFN-α, IFN-γ, IL-6, and IL-10: 8 hours post-dose
  time of maximal mRNA expression of IL-2, IDO, and MxA: 24 hours post-dose
  time of maximal mRNA expression of TNF-α, IL-12, and 2′5′-OAS: 12 hours post-dose

Reference: patent publication US20110150836A1, “METHODS OF TREATING HBV AND HCV INFECTION” (Gilead Sciences, Inc., priority 2009, published 2011)
